Laboratory results reported in US20240041042A1, “1-(PYRIDYL)-5-AZINYLPYRAZOLE DERIVATIVES, AND THEIR USE FOR CONTROL OF UNDESIRED PLANT GROWTH” (Bayer Aktiengesellschaft, priority 2020, published 2024).
Where two headings read alike, the source gives them in different places.

Experiments:
Type in all cases: in vivo
[1] = test system: Avena fatua (AVEFA); assay: Post-emergence herbicidal action against AVEFA; details: visual rating about 3 weeks after treatment
Summary of the method: (§1)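 Rates were 320 g/ha or below, applied as aqueous WP/EC spray with 0.5% additive (600 l/ha) onto one-leaf-stage plants. About 3 weeks later in the greenhouse, damage was scored visually against untreated plants on a 0–100% scale, where 100% means plants died.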

[2] = test system: Digitaria sanguinalis (DIGSA); assay: Pre-emergence herbicidal action against DIGSA
Summary of the method: (§2)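 Pre-emergence soil-surface spray of compound, formulated as wettable powder or emulsion concentrate, in aqueous suspension or emulsion with 0.5% additive (600 l/ha; rate 320 g/ha or less). Activity rated visually after roughly 3 weeks in the greenhouse as a percentage of untreated controls, 0% meaning no difference.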

[3] = test system: Matricaria inodora (MATIN); assay: Post-emergence herbicidal action against MATIN
Summary of the method: as §1

[4] = test system: Digitaria sanguinalis (DIGSA); assay: Post-emergence herbicidal action against DIGSA; details: visual rating about 3 weeks after treatment
Summary of the method: as §1

[5] = test system: Lolium rigidum (LOLRI); assay: Pre-emergence herbicidal action against LOLRI
Summary of the method: as §2

[6] = test system: Oryza sativa (ORYSA); details: crop plant compatibility
Summary of the method: (§3)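 Percent effect on the crop was judged by eye against untreated controls, where 0% means like control and 100% means dead plants. Plants had been sprayed post-emergence at the one-leaf stage and then kept under optimum greenhouse conditions for about 3 weeks.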

[7] = test system: Pharbitis purpurea (PHBPU); assay: Pre-emergence herbicidal action against PHBPU
Summary of the method: as §2

[8] = test system: Zea mays (ZEAMX); details: for Post-emergence action against ZEAMX in %: crop plant compatibility, effect vs untreated controls
Summary of the method: as §3

[9] = test system: Zea mays (ZEAMX); details: pre-emergence, 80 g/ha, crop plant compatibility, in comparison to untreated controls
Summary of the method: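 Scoring: visual, % of untreated control, about 3 weeks after a pre-emergence application to the soil surface. Application used WP or EC formulations diluted in water with 0.5% additive at 600 l/ha; dosage levels are marked by suffixes a, b and c.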

[10] = 80 g/ha, visual scoring after about 3 weeks vs untreated controls
[11] = 80 g/ha, effect in comparison to untreated controls
[12] = 20 g/ha, effect vs untreated controls
[13] = 320 g/ha, effect in comparison to untreated controls

| SMILES | Post-emergence action against ORYSA in % [6, 11] [%] | Post-emergence action against ORYSA in % [6, 12] [%] | Post-emergence action against ZEAMX in % (crop plant compatibility) ([8]; 20 g/ha, ZEAMX, effect in comparison to untreated controls) [%] | Post-emergence action against ORYSA in % [6, 13] [%] | Post-emergence action against ZEAMX in % ([8]; 80 g/ha) [%] | Post-emergence action against ZEAMX in % ([8]; 320 g/ha) [%] | Pre-emergence action against ZEAMX in % [9] [%] | Post-emergence action against AVEFA in % ([1]; 80 g/ha) [%] | Post-emergence action against AVEFA in % ([1]; 320 g/ha) [%] | Pre-emergence action against DIGSA in % [2, 10] [%] | Pre-emergence action against DIGSA in % ([2]; dosage 320 g/ha) [%] | Post-emergence action against MATIN in % ([3]; dosage 320 g/ha) [%] | Post-emergence action against DIGSA in % ([4]; 320 g/ha) [%] | Pre-emergence action against LOLRI in % ([5]; dosage 80 g/ha) [%] | Pre-emergence action against LOLRI in % ([5]; dosage 320 g/ha) [%] | Post-emergence action against DIGSA in % ([4]; 80 g/ha) [%] | Pre-emergence action against PHBPU in % ([7]; dosage 80 g/ha) [%] | Pre-emergence action against PHBPU in % ([7]; dosage 320 g/ha) [%] | Post-emergence action against MATIN in % ([3]; dosage 80 g/ha) [%] |
| --- | --- | --- | --- | --- | --- | --- | --- | --- | --- | --- | --- | --- | --- | --- | --- | --- | --- | --- | --- |
| COC(=O)[C@@H](C)Oc1nn(-c2ncccc2F)c(-c2ccc(F)nc2)c1Br [Example I-05, Methyl (2R)-2-{[4-bromo-1-(3-fluoropyridin-2-yl)-5-(6-fluoropyridin-3-yl)-1H-pyrazol-3-yl]oxy}propanoate] | – | – | – | – | – | – | – | 90 | 90 | 100 | 100 | 100 | 90 | 80 | 100 | – | – | – | – |
| C[C@@H](Oc1nn(-c2nc(F)ccc2F)c(-c2cncc(F)c2)c1C1CC1)C(=O)O [Example I-180] | – | – | – | – | – | – | – | 80 | 90 | 90 | 100 | 90 | 80 | 100 | 100 | 80 | 90 | 90 | – |
| O=C(O)COc1nn(-c2ncccc2F)c(-c2ccc(F)nc2)c1Br [Example I-08] | – | – | – | – | – | – | – | 80 | 90 | 100 | 100 | 90 | 90 | 80 | 100 | – | – | 80 | 90 |
| COC(=O)[C@@H](C)Oc1nn(-c2nc(F)ccc2F)c(-c2cncc(F)c2)c1C1CC1 [Example I-171] | – | – | – | – | – | – | – | 90 | 90 | 80 | 100 | 90 | 80 | 100 | 100 | – | 80 | 90 | 80 |
| COC(=O)COc1nn(-c2nc(F)ccc2F)c(-c2cncc(F)c2)c1C1CC1 [Example I-164] | – | – | – | – | – | – | – | 80 | 80 | 90 | 100 | 80 | 90 | 100 | 100 | 80 | 80 | 90 | – |
| O=C(O)COc1nn(-c2nc(F)ccc2F)c(-c2cncc(F)c2)c1C1CC1 [Example I-148] | – | – | – | – | – | – | – | – | 80 | 90 | 100 | 80 | 90 | 90 | 100 | 80 | – | 90 | 80 |
| CCOC(=O)COc1nn(-c2nc(F)ccc2F)c(-c2cncc(F)c2)c1C1CC1 [Example I-149] | – | – | – | – | – | – | – | – | 80 | 90 | 100 | 90 | 90 | 100 | 100 | 80 | 80 | 90 | 80 |

Further lines, with some results ahead:

| Post-emergence action against ORYSA in % [6, 11] [%] | Post-emergence action against ORYSA in % [6, 12] [%] | Post-emergence action against ZEAMX in % (crop plant compatibility) ([8]; 20 g/ha, ZEAMX, effect in comparison to untreated controls) [%] | Post-emergence action against ORYSA in % [6, 13] [%] | Post-emergence action against ZEAMX in % ([8]; 80 g/ha) [%] | Post-emergence action against ZEAMX in % ([8]; 320 g/ha) [%] | Pre-emergence action against ZEAMX in % [9] [%] | SMILES | Post-emergence action against AVEFA in % ([1]; 80 g/ha) [%] | Post-emergence action against AVEFA in % ([1]; 320 g/ha) [%] | Pre-emergence action against DIGSA in % [2, 10] [%] | Pre-emergence action against DIGSA in % ([2]; dosage 320 g/ha) [%] | Post-emergence action against MATIN in % ([3]; dosage 320 g/ha) [%] | Post-emergence action against DIGSA in % ([4]; 320 g/ha) [%] | Pre-emergence action against LOLRI in % ([5]; dosage 80 g/ha) [%] | Pre-emergence action against LOLRI in % ([5]; dosage 320 g/ha) [%] | Post-emergence action against DIGSA in % ([4]; 80 g/ha) [%] | Pre-emergence action against PHBPU in % ([7]; dosage 80 g/ha) [%] | Pre-emergence action against PHBPU in % ([7]; dosage 320 g/ha) [%] | Post-emergence action against MATIN in % ([3]; dosage 80 g/ha) [%] |
| --- | --- | --- | --- | --- | --- | --- | --- | --- | --- | --- | --- | --- | --- | --- | --- | --- | --- | --- | --- |
| 10 | – | – | – | – | – | – | COCCOC(=O)COc1nn(-c2ncccc2C)c(-c2cncc(F)c2)c1Br [Example I-212] | 80 | 90 | 100 | 100 | 80 | 90 | 80 | 90 | 90 | 90 | 90 | – |
| 10 | 0 | 10 | – | – | – | – | O=C(O)COc1nn(-c2ncccc2F)c(-c2ccc(F)nc2)c1Br [Example I-17] | – | 80 | 100 | 100 | – | 90 | – | 100 | 90 | – | 90 | – |
| 10 | – | – | 20 | – | – | – | O=C(O)COc1nn(-c2ccccn2)c(-c2cncnc2)c1Br [Example I-66] | – | 100 | 100 | 100 | 90 | 90 | 80 | 100 | – | – | – | 80 |
| 0 | – | – | – | 0 | – | – | COC(=O)COc1nn(-c2ncccc2F)c(-c2ccc(F)nc2)c1Br [Example I-07] | – | 90 | 100 | 100 | 100 | 90 | – | 100 | 90 | – | 90 | 90 |
| 0 | – | – | – | – | – | – | CCOC(=O)[C@@H](C)Oc1nn(-c2nc(F)ccc2F)c(-c2cncc(F)c2)c1Cl [Example I-208] | – | – | 90 | 100 | 80 | 90 | 90 | 100 | 80 | 90 | 90 | 80 |
| – | – | – | – | 0 | 20 | 20 | C[C@@H](Oc1nn(-c2ncccc2F)c(-c2ccc(F)nc2)c1Br)C(=O)O [Example I-10] | 80 | 90 | 100 | 100 | – | 90 | 100 | 100 | 90 | 90 | 90 | – |
| 0 | – | – | – | – | – | – | COC(=O)[C@H](C)COC(=O)COc1nn(-c2ccccn2)c(-c2cncc(F)c2)c1Cl [Example I-192] | – | 80 | 90 | 100 | 80 | 80 | 80 | 100 | 80 | 90 | 90 | – |
| 10 | 0 | – | 20 | – | – | – | C[C@@H](Oc1nn(-c2ncccc2F)c(-c2ccc(F)nc2)c1Br)C(=O)O [Example I-18] | – | 80 | 100 | 100 | 80 | 90 | 90 | 100 | 90 | – | 90 | 80 |
